From US20090136472A1, “Use of thiazole derivatives and analogues in disorders caused by free fatty acids” (priority 2005, published 2009)

Columns and labels:
[1] = tested on: MDA-MB-231 cells; test: Test A cell proliferation assay (FFA/linolenic acid-stimulated, cell cycle analysis by flow cytometry); type: cell-based, human; conditions: 24 hours; for inhibition at 10 µM: Homo sapiens, at a concentration of 10 μM, cells in S-phase, read-out: percentage antagonist activity (inhibition of FFA induced cell proliferation); for inhibition at 10 µM / antagonism of free fatty acid stimulated cell proliferation: linolenic acid-stimulated MDA-MB-231 cells; for antagonism of free fatty acid stimulated cell proliferation: S-phase by propidium iodine staining
Description: Cytomics™ FC500 Flow Cytometer with CXP software (Beckman Coulter) MDA-MB-231 cells MDA-MB-231 cells were cultured in the propagation media D-MEM+1000 mg/L Glucose+GlutaMAX™ 1+Pyruvate supplemented with 10% V/V Foetal Bovine Serum and PEST (100 U/ml penicillin, 100 μg/mL streptomycin). Cells were seeded in 6 well plates to a density of 300000 cells/well in propagation media. After 24 hours, media was replaced with serum free D-MEM media.
Linolenic acid was diluted in DMSO to a concentration of 100 mM and added to the culture media to a final concentration of 100 μM.
Compounds were as dissolved in DMSO to a concentrations of 10 mM (Compounds of Examples 95 and 6 (Compound X and Compound Y, respectively)) and 40 mM (Compound of Example 4 (Compound Z)) and added to the culture media to a final concentration of 10 μM (X and Y) and 40 μM (Z) respectively.
After 24 hours in serum free media DMEM, linolenic acid (to a final concentration of […]) and compounds to be screened for activity were added to a final concentration of 10 μM (Compounds X and Y) and 40 μM (Compound Z) respectively. Final DMSO concentration was kept at 0.2% in all wells. After 24 hours of stimulation, cells were harvested and propidium iodine stained using a CyStain PI absolute T Kit according to manufacturer's recommendations. Cells were subsequently analyzed using a Cytomics™ FC500 Flow Cytometer with CXP software (Beckman Coulter) for cell cycle distribution. Cells were incubated with or without linolenic acid (LA) and the Compounds X, Y and Z for 24 hours at indicated concentrations. Cells in S-phase from untreated sample were set to 100% in each experiment.

[2] = tested on: Ob/Ob mice; test: Test B insulin measurement study in diabetic Ob/Ob mice; type: in vivo; conditions: 1 mg/kg intraperitoneally once daily for 2 weeks
Description: Ultra sensitive rat insulin ELISA kit (Crystal Chen inc) according to manufacturer's recommendations.
Serum insulin measurements on 4 hour fasted 8-9 week old Ob/Ob mice (Taconic) were performed. Mice were distributed to a vehicle control group (VC) or a Compound Z treatment group, so that mean s-insulin was equal between the groups. 1 mg/kg bodyweight of Compound Z in PBS/1% v/v DMSO and VC groups were injected intraperitoneally once daily for 2 weeks, after which 4 hour fasted serum insulin levels were measured as described above.

| Compound | effect on the basal proliferation of MDA-MB-231 cells ([1]; Compound X 10 μM without linolenic acid) | inhibition at 10 µM [1] [%] | antagonism of free fatty acid stimulated cell proliferation [1] | hyperinsulinemia (4 hour fasted serum insulin level) [2] |
| --- | --- | --- | --- | --- |
| O=C1NC(=Nc2ccccn2)SC1Cc1ccc(F)cc1 (centres unmarked) [Compound X, 5-(4-Fluorobenzyl)-2-(pyridin-2-ylimino)thiazolidin-4-one] | did not exhibit any detectable effect | 70 | able to antagonize free fatty acid stimulated cell proliferation |  |
| Cc1ccc(N=C2NC(=O)C(Cc3cccc(C(F)(F)F)c3)S2)cc1 (centres unmarked) [Compound Z, 5-(3-(Trifluoromethyl)benzyl)-2-(p-tolylimino)thiazolidin-4-one] |  | 50 | able to antagonize free fatty acid stimulated cell proliferation | attenuated hyperinsulinemia |
| O=C1NC(=Nc2ccc(Cl)cc2)SC1Cc1cccc(C(F)(F)F)c1 (centres unmarked) [Compound Y, 5-(3-(Trifluoromethyl)benzyl)-2-(4-chlorophenylimino)thiazolidin-4-one] |  | 100 | able to antagonize free fatty acid stimulated cell proliferation |  |
